In ChEMBL document CHEMBL5154930, “Design, Synthesis, and Biological Evaluations of DOT1L Peptide Mimetics Targeting the Protein-Protein Interactions between DOT1L and MLL-AF9/MLL-ENL” (J Med Chem, 2022):
Activity calls are given as the source filed them. The rule behind the calls is not given here.

What was measured:
[1] = tested on: MOLM-13; experiment: Inhibition of methylation of H3K79 in human MOLM-13 cells assessed as inhibition of methylation at HOXA-AS2 gene cluster by chromatin immunoprecipitation assay; assay type: functional, cell-based
[2] = tested on: MOLM-13; experiment: Down regulation of CDKN1B gene in human MOLM-13 cells by RNA-sequencing analysis; assay type: functional, cell-based
[3] = tested on: MOLM-13; experiment: Inhibition of methylation of H3K79 in human MOLM-13 cells assessed as inhibition of methylation at HOXA10 gene cluster by chromatin immunoprecipitation assay; assay type: functional, cell-based
[4] = tested on: MOLM-13; experiment: Inhibition of HOXA9 gene expression in human MOLM-13 cells at 0.25 uM by RT-qPCR analysis; assay type: functional, cell-based; conditions: time 2-6 day, TDE = time-dependent effect
[5] = tested on: MOLM-13; experiment: Inhibition of methylation of H3K79 in human MOLM-13 cells assessed as inhibition of methylation at HOXA3 gene cluster by chromatin immunoprecipitation assay; assay type: functional, cell-based
[6] = tested on: KOPN-8; experiment: cells; conditions: Homo sapiens, KOPN-8, 192 h
Description: Anticancer activity against human KOPN-8 cells harbouring MLL-ENL assessed as inhibition of cell growth treated for 8 days measured by CCK-8 kit method

[7] = tested on: MOLM-13; experiment: Down regulation of PBX3 gene in human MOLM-13 cells by RNA-sequencing analysis; assay type: functional, cell-based
[8] = tested on: MOLM-13; experiment: Down regulation of AC011043.1 gene in human MOLM-13 cells by RNA-sequencing analysis; assay type: functional, cell-based
[9] = tested on: MOLM-13; experiment: Down regulation of MCM2 gene in human MOLM-13 cells by RNA-sequencing analysis; assay type: functional, cell-based
[10] = tested on: MOLM-13; experiment: Inhibition of methylation of H3K79 in human MOLM-13 cells assessed as inhibition of methylation at […] gene cluster by chromatin immunoprecipitation assay; assay type: functional, cell-based
[11] = tested on: MOLM-13; experiment: Inhibition of methylation of H3K79 in human MOLM-13 cells assessed as inhibition of methylation at HOXA7 gene cluster by chromatin immunoprecipitation assay; assay type: functional, cell-based
[12] = tested on: MOLM-13; experiment: Down regulation of GATA2 gene in human MOLM-13 cells by RNA-sequencing analysis; assay type: functional, cell-based
[13] = tested on: MOLM-13; experiment: Inhibition of HOXA9 gene expression in human MOLM-13 cells measured at 0.125 to 0.5 uM after 6 days by RT-qPCR analysis; assay type: functional, cell-based; conditions: dose 0.125-0.5 µM, time 6.0 day
[14] = tested on: MOLM-13; experiment: Down regulation of […] gene in human MOLM-13 cells by RNA-sequencing analysis; assay type: functional, cell-based
[15] = tested on: MOLM-13; experiment: Inhibition of methylation of H3K79 in human MOLM-13 cells assessed as inhibition of methylation at HOXA11 gene cluster by chromatin immunoprecipitation assay; assay type: functional, cell-based
[16] = tested on: MOLM-13; experiment: Down regulation of GBE1 gene in human MOLM-13 cells by RNA-sequencing analysis; assay type: functional, cell-based
[17] = tested on: MOLM-13; experiment: Down regulation of MEF2C gene in human MOLM-13 cells by RNA-sequencing analysis; assay type: functional, cell-based
[18] = tested on: MOLM-13; experiment: Down regulation of TUBA1B gene in human MOLM-13 cells by RNA-sequencing analysis; assay type: functional, cell-based
[19] = tested on: MOLM-13; experiment: Inhibition of methylation of H3K79 in human MOLM-13 cells assessed as inhibition of methylation at HOXA5 gene cluster by chromatin immunoprecipitation assay; assay type: functional, cell-based
[20] = tested on: MOLM-13; experiment: Down regulation of SSBP2 gene in human MOLM-13 cells by RNA-sequencing analysis; assay type: functional, cell-based
[21] = tested on: K562; experiment: Anticancer activity against human K562 cells assessed as inhibition of cell growth treated for 8 days measured by CCK-8 kit method; assay type: functional, cell-based; conditions: K562, 192 h
[22] = tested on: MOLM-13; experiment: Disruption of AF9-mediated DOT1L recruitment in human […] cells assessed as decrease in global H3K79 methylation level at 0.125 uM measured after 8 days by Western blotting analysis; assay type: cell-based; conditions: time 8.0 day
[23] = tested on: MOLM-13; experiment: cells; conditions: Homo sapiens, MOLM-13, 96 h
Description: Anticancer activity against human MOLM-13 cells harbouring MLL-AF9 assessed as inhibition of cell growth treated for 4 days measured by CCK-8 kit method

[24] = tested on: MOLM-13; experiment: Inhibition of methylation of H3K79 in human MOLM-13 cells assessed as inhibition of methylation at HOXA13 gene cluster by chromatin immunoprecipitation assay; assay type: functional, cell-based
[25] = tested on: MOLM-13; experiment: Inhibition of methylation of H3K79 in human MOLM-13 cells assessed as inhibition of methylation at HOXA4 gene cluster by chromatin immunoprecipitation assay; assay type: functional, cell-based
[26] = tested on: MOLM-13; experiment: Down regulation of HOXA10 gene in human MOLM-13 cells by RNA-sequencing analysis; assay type: functional, cell-based
[27] = tested on: MOLM-13; experiment: Down regulation of DCUN1D1 gene in human MOLM-13 cells by RNA-sequencing analysis; assay type: functional, cell-based
[28] = tested on: MOLM-13; experiment: cells; conditions: Homo sapiens, MOLM-13, 144 h
Description: Anticancer activity against human MOLM-13 cells harbouring MLL-AF9 assessed as inhibition of cell growth treated for 6 days measured by CCK-8 kit method

[29] = tested on: RS4-11; experiment: Anticancer activity against human RS4-11 cells assessed as inhibition of cell growth treated for 8 days measured by CCK-8 kit method; assay type: functional, cell-based; conditions: RS4-11, 192 h
[30] = tested on: MOLM-13; experiment: Down regulation of JMJD1C gene in human MOLM-13 cells by RNA-sequencing analysis; assay type: functional, cell-based
[31] = tested on: MOLM-13; experiment: cells; conditions: Homo sapiens, MOLM-13, 120 h
Description: Anticancer activity against human MOLM-13 cells harbouring MLL-AF9 assessed as inhibition of cell growth treated for 5 days measured by CCK-8 kit method

[32] = tested on: MOLM-13; experiment: Inhibition of methylation of H3K79 in human MOLM-13 cells assessed as inhibition of methylation at MEIS1-AS3 gene cluster by chromatin immunoprecipitation assay; assay type: functional, cell-based
[33] = tested on: MOLM-13; experiment: Down regulation of HOXA3 gene in human MOLM-13 cells by RNA-sequencing analysis; assay type: functional, cell-based
[34] = tested on: MOLM-13; experiment: Inhibition of methylation of H3K79 in human MOLM-13 cells assessed as inhibition of methylation at MEIS1 gene cluster by chromatin immunoprecipitation assay; assay type: functional, cell-based
[35] = tested on: MOLM-13; experiment: Down regulation of HOXA11 gene in human MOLM-13 cells by RNA-sequencing analysis; assay type: functional, cell-based
[36] = tested on: MOLM-13; experiment: Down regulation of MEIS1 gene in human MOLM-13 cells by RNA-sequencing analysis; assay type: functional, cell-based
[37] = tested on: MOLM-13; experiment: Down regulation of RUNX1 gene in human MOLM-13 cells by RNA-sequencing analysis; assay type: functional, cell-based
[38] = tested on: MOLM-13; experiment: Down regulation of ARID1B gene in human MOLM-13 cells by RNA-sequencing analysis; assay type: functional, cell-based
[39] = tested on: MOLM-13; experiment: Down regulation of HOXA9 gene in human MOLM-13 cells by RNA-sequencing analysis; assay type: functional, cell-based
[40] = tested on: MOLM-13; experiment: cells; conditions: Homo sapiens, MOLM-13, 168 h
Description: Anticancer activity against human MOLM-13 cells harbouring MLL-AF9 assessed as inhibition of cell growth treated for 7 days measured by CCK-8 kit method

[41] = tested on: MOLM-13; experiment: Induction of apoptosis in human MOLM-13 cells at 0.125 to 0.5 uM treated for 7 days by Annexin V-FITC/PI staining based flow cytometry analysis; assay type: functional, cell-based; conditions: dose 0.125-0.5 µM, time 7.0 day
[42] = tested on: MOLM-13; experiment: Down regulation of CDK1 gene in human MOLM-13 cells by RNA-sequencing analysis; assay type: functional, cell-based
[43] = tested on: MOLM-13; experiment: Inhibition of methylation of H3K79 in human MOLM-13 cells assessed as inhibition of methylation at HOXA1 gene cluster by chromatin immunoprecipitation assay; assay type: functional, cell-based
[44] = tested on: MOLM-13; experiment: Inhibition of methylation of H3K79 in human MOLM-13 cells assessed as inhibition of methylation at HOXA6 gene cluster by chromatin immunoprecipitation assay; assay type: functional, cell-based
[45] = tested on: MOLM-13; experiment: Inhibition of methylation of H3K79 in human MOLM-13 cells assessed as inhibition of methylation at HOXA9 gene cluster by chromatin immunoprecipitation assay; assay type: functional, cell-based
[46] = tested on: MOLM-13; experiment: Down regulation of HOXA5 gene in human MOLM-13 cells by RNA-sequencing analysis; assay type: functional, cell-based
[47] = tested on: MOLM-13; experiment: Down regulation of ARID2 gene in human MOLM-13 cells by RNA-sequencing analysis; assay type: functional, cell-based
[48] = tested on: MOLM-13; experiment: cells; conditions: Homo sapiens, MOLM-13, 192 h
Description: Anticancer activity against human MOLM-13 cells harbouring MLL-AF9 assessed as inhibition of cell growth treated for 8 days measured by CCK-8 kit method

[49] = tested on: MOLM-13; experiment: cells; conditions: Homo sapiens, MOLM-13, 216 h
Description: Anticancer activity against human MOLM-13 cells harbouring MLL-AF9 assessed as inhibition of cell growth treated for 9 days measured by CCK-8 kit method

[50] = tested on: MOLM-13; experiment: Down regulation of HPGD gene in human MOLM-13 cells by RNA-sequencing analysis; assay type: functional, cell-based
[51] = tested on: MOLM-13; experiment: Down regulation of CNOT6L gene in human MOLM-13 cells by RNA-sequencing analysis; assay type: functional, cell-based
[52] = tested on: MOLM-13; experiment: Inhibition of MEIS1 expression in human MOLM-13 cells at 0.25 uM by RT-qPCR analysis; assay type: functional, cell-based; conditions: time 2-6 day, TDE = time-dependent effect
[53] = tested on: MOLM-13; experiment: Inhibition of MEIS1 gene expression in human MOLM-13 cells measured at 0.125 to 0.5 uM after 6 days by RT-qPCR analysis; assay type: functional, cell-based; conditions: dose 0.125-0.5 µM, time 6.0 day
[54] = tested on: MOLM-13; experiment: Inhibition of methylation of H3K79 in human MOLM-13 cells assessed as inhibition of methylation at HOXA2 gene cluster by chromatin immunoprecipitation assay; assay type: functional, cell-based
[55] = tested on: MV4-11; experiment: Anticancer activity against human MV4-11 cells assessed as inhibition of cell growth treated for 8 days measured by CCK-8 kit method; assay type: functional, cell-based; conditions: MV4-11, 192 h
[56] = tested on: MOLM-13; experiment: Down regulation of SKP2 gene in human MOLM-13 cells by RNA-sequencing analysis; assay type: functional, cell-based
[57] = tested on: MOLM-13; experiment: Down regulation of CDK6 gene in human MOLM-13 cells by RNA-sequencing analysis; assay type: functional, cell-based

SMILES: CC(C)N(C[C@H]1O[C@@H](n2cnc3c(N)ncnc32)[C@H](O)[C@@H]1O)[C@H]1C[C@@H](CCc2nc3cc(C(C)(C)C)ccc3[nH]2)C1 [PINOMETOSTAT]
- inhibition [1]: Active
- Activity [2]: Active
- inhibition [3]: Active
- inhibition [4]: Tde
- inhibition [5]: Active
- IC50 [6]: 60 nM
- Activity [7]: Active
- Activity [8]: Active
- Activity [9]: Active
- inhibition [10]: Active
- inhibition [11]: Active
- Activity [12]: Active
- inhibition [13]: Active
- Activity [14]: Active
- inhibition [15]: Active
- Activity [16]: Active
- Activity [17]: Active
- Activity [18]: Active
- inhibition [19]: Active
- Activity [20]: Active
- IC50 [21]: 31000 nM
- inhibition [22]: 100%
- IC50 [23]: 227 nM
- inhibition [24]: Active
- inhibition [25]: Active
- Activity [26]: Active
- Activity [27]: Active
- IC50 [28]: 73 nM
- IC50 [29]: 70 nM
- Activity [30]: Active
- IC50 [31]: 97 nM
- inhibition [32]: Active
- Activity [33]: Active
- inhibition [34]: Active
- Activity [35]: Active
- Activity [36]: Active
- Activity [37]: Active
- Activity [38]: Active
- Activity [39]: Active
- IC50 [40]: 59 nM
- Activity [41]: Active
- Activity [42]: Active
- inhibition [43]: Active
- inhibition [44]: Active
- inhibition [45]: Active
- Activity [46]: Active
- Activity [47]: Active
- IC50 [48]: 30 nM
- IC50 [49]: 21 nM
- Activity [50]: Active
- Activity [51]: Active
- inhibition [52]: Tde
- inhibition [53]: Active
- inhibition [54]: Active
- IC50 [55]: 50 nM
- Activity [56]: Active
- Activity [57]: Active
